Results taken from patent publication US4806604A, “Photosensitive calcium chelators” (Regents of the University of California, priority 1987, dated 1989).
Like-named read-outs stand apart in the source and are kept apart here.

Legend:
[1] = Ca^2+ affinity (dissociation constant) of the chelators; format: binding; conditions: for Ca^2+ affinity (rank in words): conformational explanation of Table I
[2] = Mg^2+ affinity (dissociation constant) of the chelators; format: binding
[3] = Release of Ca^2+ after flash photolysis; conditions: after a submillisecond light flash
[4] = Ca^2+:Mg^2+ selectivity (rejection of Mg^2+); format: binding; conditions: 22° C., 0.1M ionic strength
[5] = EDTA analogs vs EDTA parent; cited from earlier work
[6] = Tsien, 1980; read-out: Kd (Ca^2+); cited from earlier work
[7] = cytosolic free calcium 2+ typical for resting cells; cited from earlier work

Cc1ccc(N(CC(=O)O)CC(=O)O)c(O[C@@H]2CCC[C@@H]2Oc2cc(C(=O)c3cc4c(cc3N=O)OCO4)ccc2N(CC(=O)O)CC(=O)O)c1 (relative stereo) [VIII]
Kd ([1]; after photolysis of nitr-7 to the nitrosobenzophenone, read-out: dissociation constant for Ca^2+ upon photolysis): 3 µM

Cc1ccc(N(CC(=O)O)CC(=O)O)c(O[C@@H]2CCC[C@@H]2Oc2ccccc2N(CC(=O)O)CC(=O)O)c1 (relative stereo) [Va]
Kd ([1]; Table I, Chelator V after saponification, before photolysis, read-out: Kd for Ca^2+): 0.02 µM | Ca^2+ affinity (rank in words) [1]: highest Ca^2+ affinities | higher affinity for Ca^2+ than the trans-isomer ([1]; cyclopentanediyl series, cis (Va) vs trans (Vb)): 300 -fold | Kd ([2]; Table I, Chelator V after saponification, read-out: Kd for Mg^2+): 4200 µM

Cc1ccc(N(CC(=O)O)CC(=O)O)c(O[C@H]2CCC[C@H]2Oc2cc(C(O)c3cc4c(cc3[N+](=O)[O-])OCO4)ccc2N(CC(=O)O)CC(=O)O)c1 (relative stereo) [nitr-7, cis-1-(2-bis(carboxymethyl)amino-5-(1-hydroxy-1-(2-nitro-4,5-methylenedioxyphenyl)methyl)phenoxy)-2-(2-bis(carboxymethyl)amino-5-methylphenoxy)cyclopentane]
Kd ([1]; 22° C., 0.1M ionic strength, before photolysis, read-out: dissociation constant for Ca^2+): 0.053 µM | Ca^2+ affinity (rank in words) [1]: highest Ca^2+ affinities | Kd ([2]; 22° C., 0.1M ionic strength, read-out: dissociation constant for Mg^2+): 5700 µM | exponential time constant of Ca^2+ release [3]: 1.8 millisecond | Rejection of Mg^2+ [4]: > 10^5

O=C(O)CN(CC(=O)O)[C@H]1CCCC[C@@H]1N(CC(=O)O)CC(=O)O (relative stereo) [trans-cyclohexanediyl analog]
stronger Ca^2+ affinity than the parent [5]: 324 -fold

O=C(O)CN(CC(=O)O)[C@H]1CCC[C@@H]1N(CC(=O)O)CC(=O)O (relative stereo) [trans-cyclopentanediyl analog]
higher affinity for Ca^2+ than the parent [5]: 3.7 -fold

O=C(O)CN(CC(=O)O)c1ccccc1OCCOc1ccccc1N(CC(=O)O)CC(=O)O [BAPTA, 1,2-bis(2-aminophenoxy)ethane N,N,N'N'-tetraacetic acid]
Kd [6]: 0.1 µM

O=C(O)CN(CC(=O)O)[C@@H]1CCCC[C@@H]1N(CC(=O)O)CC(=O)O [cis-cyclohexanediyl analog]
weaker Ca^2+ affinity than the parent [5]: 17 -fold

COC(c1ccc(N(CC(=O)O)CC(=O)O)c(OCCOc2cc(C)ccc2N(CC(=O)O)CC(=O)O)c1)c1cc2c(cc1[N+](=O)[O-])OCO2 (stereo not drawn) [nitr-2]
fraction of unphotolyzed chelator molecules bearing calcium 2+ ions [7]: 1/2
